Columns and labels:
Lung [1] = assay: Biodistribution in lung of mouse B16F0 cells implanted C57BL/6J mouse assessed per gram of tissue at 0.4 to 5.5 MBq, iv after 1 hr by gamma counter; type: ADME, organism-based; conditions: in vivo
Lung [2] = assay: Biodistribution in lung of mouse B16F0 cells implanted C57BL/6J mouse assessed per gram of tissue at 0.4 to 5.5 MBq, iv after 0.5 hrs by gamma counter; type: ADME, organism-based; conditions: in vivo
Spleen [3] = assay: Biodistribution in spleen of mouse B16F0 cells implanted C57BL/6J mouse assessed per gram of tissue at 0.4 to 5.5 MBq, iv after 6 hrs by gamma counter; type: ADME, organism-based; conditions: in vivo
Stomach [4] = assay: Biodistribution in stomach of mouse B16F0 cells implanted C57BL/6J mouse assessed per gram of tissue at 0.4 to 5.5 MBq, iv after 1 hr by gamma counter; type: ADME, organism-based; conditions: in vivo
[5] = Biodistribution in tumor of mouse B16F0 cells implanted C57BL/6J mouse assessed per gram of tissue at 0.4 to 5.5 MBq, iv after 2 hrs by gamma counter; type: ADME, organism-based, Neoplasm; conditions: in vivo
[6] = Biodistribution in tumor of mouse B16F0 cells implanted C57BL/6J mouse assessed per gram of tissue at 0.4 to 5.5 MBq, iv after 0.5 hrs by gamma counter; type: ADME, organism-based, Neoplasm; conditions: in vivo
Thyroid gland [7] = assay: Biodistribution in thyroid of mouse B16F0 cells implanted C57BL/6J mouse assessed per gram of tissue at 0.4 to 5.5 MBq, iv after 0.5 hrs by gamma counter; type: ADME, organism-based; conditions: in vivo
Stomach [8] = assay: Biodistribution in stomach of mouse B16F0 cells implanted C57BL/6J mouse assessed per gram of tissue at 0.4 to 5.5 MBq, iv after 3 hrs by gamma counter; type: ADME, organism-based; conditions: in vivo
Lung [9] = assay: Biodistribution in lung of mouse B16F0 cells implanted C57BL/6J mouse assessed per gram of tissue at 0.4 to 5.5 MBq, iv after 3 hrs by gamma counter; type: ADME, organism-based; conditions: in vivo
Thyroid gland [10] = assay: Biodistribution in thyroid of mouse B16F0 cells implanted C57BL/6J mouse assessed per gram of tissue at 0.4 to 5.5 MBq, iv after 6 hrs by gamma counter; type: ADME, organism-based; conditions: in vivo
Bone [11] = assay: Biodistribution in bone of mouse B16F0 cells implanted C57BL/6J mouse assessed per gram of tissue at 0.4 to 5.5 MBq, iv after 1 hr by gamma counter; type: ADME, organism-based, Bone element; conditions: in vivo
Spleen [12] = assay: Biodistribution in spleen of mouse B16F0 cells implanted C57BL/6J mouse assessed per gram of tissue at 0.4 to 5.5 MBq, iv after 0.25 hrs by gamma counter; type: ADME, organism-based; conditions: in vivo
[13] = Biodistribution in eye of mouse B16F0 cells implanted C57BL/6J mouse assessed per gram of tissue at 0.4 to 5.5 MBq, iv after 0.25 hrs by gamma counter; type: ADME, organism-based; conditions: in vivo
Spleen [14] = assay: Biodistribution in spleen of mouse B16F0 cells implanted C57BL/6J mouse assessed per gram of tissue at 0.4 to 5.5 MBq, iv after 1 hr by gamma counter; type: ADME, organism-based; conditions: in vivo
[15] = Biodistribution in eye of mouse B16F0 cells implanted C57BL/6J mouse assessed per gram of tissue at 0.4 to 5.5 MBq, iv after 0.5 hrs by gamma counter; type: ADME, organism-based; conditions: in vivo
Bone [16] = assay: Biodistribution in bone of mouse B16F0 cells implanted C57BL/6J mouse assessed per gram of tissue at 0.4 to 5.5 MBq, iv after 2 hrs by gamma counter; type: ADME, organism-based, Bone element; conditions: in vivo
Thyroid gland [17] = assay: Biodistribution in thyroid of mouse B16F0 cells implanted C57BL/6J mouse assessed per gram of tissue at 0.4 to 5.5 MBq, iv after 0.25 hrs by gamma counter; type: ADME, organism-based; conditions: in vivo
[18] = Biodistribution in tumor of mouse B16F0 cells implanted C57BL/6J mouse assessed per gram of tissue at 0.4 to 5.5 MBq, iv after 1 hr by gamma counter; type: ADME, organism-based, Neoplasm; conditions: in vivo
Stomach [19] = assay: Biodistribution in stomach of mouse B16F0 cells implanted C57BL/6J mouse assessed per gram of tissue at 0.4 to 5.5 MBq, iv after 0.5 hrs by gamma counter; type: ADME, organism-based; conditions: in vivo
Intestine [20] = assay: Biodistribution in intestine of mouse B16F0 cells implanted C57BL/6J mouse assessed per gram of tissue at 0.4 to 5.5 MBq, iv after 3 hrs by gamma counter; type: ADME, organism-based; conditions: in vivo
[21] = Biodistribution in eye of mouse B16F0 cells implanted C57BL/6J mouse assessed per gram of tissue at 0.4 to 5.5 MBq, iv after 1 hr by gamma counter; type: ADME, organism-based; conditions: in vivo
Thyroid gland [22] = assay: Biodistribution in thyroid of mouse B16F0 cells implanted C57BL/6J mouse assessed per gram of tissue at 0.4 to 5.5 MBq, iv after 3 hrs by gamma counter; type: ADME, organism-based; conditions: in vivo
Bone [23] = assay: Biodistribution in bone of mouse B16F0 cells implanted C57BL/6J mouse assessed per gram of tissue at 0.4 to 5.5 MBq, iv after 0.25 hrs by gamma counter; type: ADME, organism-based, Bone element; conditions: in vivo
[24] = Biodistribution in tumor of mouse B16F0 cells implanted C57BL/6J mouse assessed per gram of tissue at 0.4 to 5.5 MBq, iv after 3 hrs by gamma counter; type: ADME, organism-based, Neoplasm; conditions: in vivo
[25] = Biodistribution in eye of mouse B16F0 cells implanted C57BL/6J mouse assessed per gram of tissue at 0.4 to 5.5 MBq, iv after 6 hrs by gamma counter; type: ADME, organism-based; conditions: in vivo
Intestine [26] = assay: Biodistribution in intestine of mouse B16F0 cells implanted C57BL/6J mouse assessed per gram of tissue at 0.4 to 5.5 MBq, iv after 6 hrs by gamma counter; type: ADME, organism-based; conditions: in vivo
Spleen [27] = assay: Biodistribution in spleen of mouse B16F0 cells implanted C57BL/6J mouse assessed per gram of tissue at 0.4 to 5.5 MBq, iv after 0.5 hrs by gamma counter; type: ADME, organism-based; conditions: in vivo
Lung [28] = assay: Biodistribution in lung of mouse B16F0 cells implanted C57BL/6J mouse assessed per gram of tissue at 0.4 to 5.5 MBq, iv after 6 hrs by gamma counter; type: ADME, organism-based; conditions: in vivo
Thyroid gland [29] = assay: Biodistribution in thyroid of mouse B16F0 cells implanted C57BL/6J mouse assessed per gram of tissue at 0.4 to 5.5 MBq, iv after 1 hr by gamma counter; type: ADME, organism-based; conditions: in vivo
[30] = Biodistribution in eye of mouse B16F0 cells implanted C57BL/6J mouse assessed per gram of tissue at 0.4 to 5.5 MBq, iv after 2 hrs by gamma counter; type: ADME, organism-based; conditions: in vivo
Bone [31] = assay: Biodistribution in bone of mouse B16F0 cells implanted C57BL/6J mouse assessed per gram of tissue at 0.4 to 5.5 MBq, iv after 6 hrs by gamma counter; type: ADME, organism-based, Bone element; conditions: in vivo
Thyroid gland [32] = assay: Biodistribution in thyroid of mouse B16F0 cells implanted C57BL/6J mouse assessed per gram of tissue at 0.4 to 5.5 MBq, iv after 2 hrs by gamma counter; type: ADME, organism-based; conditions: in vivo
Stomach [33] = assay: Biodistribution in stomach of mouse B16F0 cells implanted C57BL/6J mouse assessed per gram of tissue at 0.4 to 5.5 MBq, iv after 2 hrs by gamma counter; type: ADME, organism-based; conditions: in vivo
Stomach [34] = assay: Biodistribution in stomach of mouse B16F0 cells implanted C57BL/6J mouse assessed per gram of tissue at 0.4 to 5.5 MBq, iv after 6 hrs by gamma counter; type: ADME, organism-based; conditions: in vivo
[35] = Biodistribution in tumor of mouse B16F0 cells implanted C57BL/6J mouse assessed per gram of tissue at 0.4 to 5.5 MBq, iv after 6 hrs by gamma counter; type: ADME, organism-based, Neoplasm; conditions: in vivo
Stomach [36] = assay: Biodistribution in stomach of mouse B16F0 cells implanted C57BL/6J mouse assessed per gram of tissue at 0.4 to 5.5 MBq, iv after 0.25 hrs by gamma counter; type: ADME, organism-based; conditions: in vivo
Intestine [37] = assay: Biodistribution in intestine of mouse B16F0 cells implanted C57BL/6J mouse assessed per gram of tissue at 0.4 to 5.5 MBq, iv after 1 hr by gamma counter; type: ADME, organism-based; conditions: in vivo
[38] = Lipophilicity, log P at pH 7.5; type: physicochemical; conditions: buffer
Spleen [39] = assay: Biodistribution in spleen of mouse B16F0 cells implanted C57BL/6J mouse assessed per gram of tissue at 0.4 to 5.5 MBq, iv after 2 hrs by gamma counter; type: ADME, organism-based; conditions: in vivo
Lung [40] = assay: Biodistribution in lung of mouse B16F0 cells implanted C57BL/6J mouse assessed per gram of tissue at 0.4 to 5.5 MBq, iv after 2 hrs by gamma counter; type: ADME, organism-based; conditions: in vivo
Intestine [41] = assay: Biodistribution in intestine of mouse B16F0 cells implanted C57BL/6J mouse assessed per gram of tissue at 0.4 to 5.5 MBq, iv after 2 hrs by gamma counter; type: ADME, organism-based; conditions: in vivo
Spleen [42] = assay: Biodistribution in spleen of mouse B16F0 cells implanted C57BL/6J mouse assessed per gram of tissue at 0.4 to 5.5 MBq, iv after 3 hrs by gamma counter; type: ADME, organism-based; conditions: in vivo
Bone [43] = assay: Biodistribution in bone of mouse B16F0 cells implanted C57BL/6J mouse assessed per gram of tissue at 0.4 to 5.5 MBq, iv after 0.5 hrs by gamma counter; type: ADME, organism-based, Bone element; conditions: in vivo
Intestine [44] = assay: Biodistribution in intestine of mouse B16F0 cells implanted C57BL/6J mouse assessed per gram of tissue at 0.4 to 5.5 MBq, iv after 0.25 hrs by gamma counter; type: ADME, organism-based; conditions: in vivo
Lung [45] = assay: Biodistribution in lung of mouse B16F0 cells implanted C57BL/6J mouse assessed per gram of tissue at 0.4 to 5.5 MBq, iv after 0.25 hrs by gamma counter; type: ADME, organism-based; conditions: in vivo
[46] = Biodistribution in tumor of mouse B16F0 cells implanted C57BL/6J mouse assessed per gram of tissue at 0.4 to 5.5 MBq, iv after 0.25 hrs by gamma counter; type: ADME, organism-based, Neoplasm; conditions: in vivo
Intestine [47] = assay: Biodistribution in intestine of mouse B16F0 cells implanted C57BL/6J mouse assessed per gram of tissue at 0.4 to 5.5 MBq, iv after 0.5 hrs by gamma counter; type: ADME, organism-based; conditions: in vivo
[48] = Biodistribution in eye of mouse B16F0 cells implanted C57BL/6J mouse assessed per gram of tissue at 0.4 to 5.5 MBq, iv after 3 hrs by gamma counter; type: ADME, organism-based; conditions: in vivo
Bone [49] = assay: Biodistribution in bone of mouse B16F0 cells implanted C57BL/6J mouse assessed per gram of tissue at 0.4 to 5.5 MBq, iv after 3 hrs by gamma counter; type: ADME, organism-based, Bone element; conditions: in vivo

## CCN(CC)CCNC(=O)c1ccc([18F])nc1
Lung [1]
  Drug uptake: 1.6%
Lung [2]
  Drug uptake: 2.9%
Spleen [3]
  Drug uptake: 0.47%
Stomach [4]
  Drug uptake: 3.4%
[5]
  Drug uptake: 9.4%
[6]
  Drug uptake: 8.6%
Thyroid gland [7]
  Drug uptake: 2.5%
Stomach [8]
  Drug uptake: 0.83%
Lung [9]
  Drug uptake: 0.25%
Thyroid gland [10]
  Drug uptake: 0.17%
Bone [11]
  Drug uptake: 1.4%
Spleen [12]
  Drug uptake: 8.6%
[13]
  Drug uptake: 14.7%
Spleen [14]
  Drug uptake: 2.4%
[15]
  Drug uptake: 16%
Bone [16]
  Drug uptake: 0.58%
Thyroid gland [17]
  Drug uptake: 5.5%
[18]
  Drug uptake: 8.4%
Stomach [19]
  Drug uptake: 6.6%
Intestine [20]
  Drug uptake: 0.54%
[21]
  Drug uptake: 18.8%
Thyroid gland [22]
  Drug uptake: 0.49%
Bone [23]
  Drug uptake: 3.5%
[24]
  Drug uptake: 7.8%
[25]
  Drug uptake: 15.6%
Intestine [26]
  Drug uptake: 0.13%
Spleen [27]
  Drug uptake: 7.2%
Lung [28]
  Drug uptake: 0.07%
Thyroid gland [29]
  Drug uptake: 3.3%
[30]
  Drug uptake: 17.3%
Bone [31]
  Drug uptake: 0.52%
Thyroid gland [32]
  Drug uptake: 0.61%
Stomach [33]
  Drug uptake: 1.5%
Stomach [34]
  Drug uptake: 0.19%
[35]
  Drug uptake: 7.7%
Stomach [36]
  Drug uptake: 9.4%
Intestine [37]
  Drug uptake: 2.1%
[38]
  logD: 1.1
Spleen [39]
  Drug uptake: 1.8%
Lung [40]
  Drug uptake: 0.38%
Intestine [41]
  Drug uptake: 0.71%
Spleen [42]
  Drug uptake: 0.89%
Bone [43]
  Drug uptake: 2.1%
Intestine [44]
  Drug uptake: 5.4%
Lung [45]
  Drug uptake: 5.6%
[46]
  Drug uptake: 7%
Intestine [47]
  Drug uptake: 3.9%
[48]
  Drug uptake: 17.3%
Bone [49]
  Drug uptake: 0.62%
